The experiment concerns the target T1, PA4130 (NirA) (Pseudomonas aeruginosa, UniProt Q9HWQ1).
T1 construct: full ORF, N-terminal hexahistidine tag, plasmid pSK4130-N; coexpressed with E. coli cysG in E. coli NiCo21; IMAC and chitin column; monomer; siroheme and 4Fe-4S
The experiment is described as follows: reduced methyl viologen oxidation assay, spectrophotometric; Griess diazotization. Type of experiment: biochemical. The settings on record: electron acceptor; reduced methyl viologen or dithionite-reduced spinach ferredoxin as donor; anaerobic.

T1 sequence (Q9HWQ1 entry or part of it): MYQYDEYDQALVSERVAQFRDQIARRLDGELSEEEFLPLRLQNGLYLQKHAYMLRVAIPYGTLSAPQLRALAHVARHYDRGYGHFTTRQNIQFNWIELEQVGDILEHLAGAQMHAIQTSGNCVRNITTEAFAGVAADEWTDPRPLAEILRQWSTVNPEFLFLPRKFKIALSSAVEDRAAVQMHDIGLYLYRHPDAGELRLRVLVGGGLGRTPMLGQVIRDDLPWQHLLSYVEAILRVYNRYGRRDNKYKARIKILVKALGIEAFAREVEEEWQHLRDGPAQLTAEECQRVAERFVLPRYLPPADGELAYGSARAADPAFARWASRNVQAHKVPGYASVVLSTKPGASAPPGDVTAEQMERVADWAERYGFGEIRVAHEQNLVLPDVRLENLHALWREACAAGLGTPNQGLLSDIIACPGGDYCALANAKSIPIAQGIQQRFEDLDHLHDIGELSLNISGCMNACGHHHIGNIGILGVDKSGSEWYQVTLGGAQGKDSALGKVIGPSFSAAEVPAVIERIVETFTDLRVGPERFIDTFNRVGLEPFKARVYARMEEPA

Regarding `O=NO` [nitrite], the “reduced methyl viologen oxidation assay, spectrophotometric; Griess diazotizatio” value is on record as “PA4130 was able to oxidize MV only in the presence of nitrite”.
